Test results: patent US20230122463A1, “ORGANIC FINE PARTICLE” (DAIKIN INDUSTRIES, LTD., priority 2020, published 2023)

Key:
[1] = Water contact angle of polymer (spin-coated film, static contact angle); assay type: physicochemical; details: homopolymer of the monomer; silicon wafer spin-coated with 1.0% chloroform solution; 2 µL water, 1 minute after the droplet reached the film
Protocol: For the water contact angle of the polymer, a silicon wafer substrate was spin-coated with a chloroform solution of the resulting polymer with a solid concentration of 1.0% and the static water contact angle was measured. The static contact angle was obtained by dropping 2 µL of water on a coating film and measuring the contact angle 1 minute after the droplet reached the film.

[2] = Solubility in water of polymer and of monomer; assay type: physicochemical; details: thermodynamic from solid
Protocol: For the solubility in water of the monomers, the respective monomers were added in small batches to a predetermined amount of water, and the solubility in water was determined from the amount of dissolution when no more monomer could be dissolved (floating, precipitation or deposition occurred, or the solution became clouded).

| solubility [2] | melting point | Compound | Water contact angle of homopolymer [1] |
| --- | --- | --- | --- |
| – | – | C=C(C)C(=O)OCC(CC)CCCC (stereo not shown) [EHMA, 2-ethyhexyl methacrylate] | 97 ° |
| < 100 µg/mL | 50 °C | C=CC(=O)OCCCCCCCCCCCCCCCCCC [SA, stearyl acrylate] | 102 ° |
